Patent US20240327393A1 (SIRONAX LTD., priority 2021, published 2024)

Each compound was assayed on HT-1080 (ATCC, CCL-121) cells (assay: HT-1080 cell viability assay with ferroptosis inducer RSL3 (Cell Titer-Glo)). Settings: Homo sapiens; HT-1080 cells treated with RSL3; 3-fold, 10-point dilution, 1.1 μM highest concentration; Table 3; read-out: EC50 (nM), ferroptosis inhibitory activity.
Format: cell-based
Outline: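 EC50 was derived by sigmoidal dose-response regression of CellTiter-Glo luminescence viability, expressed relative to untreated wells. Compounds were tested in a ten-point, threefold dilution series (highest 1.1 μM) in the presence of the ferroptosis inducer RSL3. HT-1080 cells had been seeded at 6000 per well and grown overnight first.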

Row | EC50 [nM] | SMILES
1 | 0.1 to 100 | Cc1cc(N2CCC(C(F)(F)F)C2)ccc1Nc1ccc2c(c1)OCCC(=O)N2 (stereo not drawn) [Compound 628, 8-((2-methyl-4-(3-(trifluoromethyl)pyrrolidin-1-yl)phenyl)amino)-2,3-dihydrobenzo[b][1,4]oxazepin-4(5H)-one]
2 | 0.1 to 100 | Cc1cc(N2CCC(C(F)(F)F)CC2)ccc1Nc1ccc2c(c1)OCC(=O)N(C)C2 [Compound 631, 4-methyl-8-((2-methyl-4-(4-(trifluoromethyl)piperidin-1-yl)phenyl)amino)-4,5-dihydrobenzo[f][1,4]oxazepin-3(2H)-one]
3 | 0.1 to 100 | Cc1cc(N2CC(O)(C(F)(F)F)C2)ccc1Nc1ccc2c(c1)OCC(=O)N2 [Compound 632, 7-({4-[3-hydroxy-3-(trifluoromethyl)azetidin-1-yl]-2-methylphenyl}amino)-2,4-dihydro-1,4-benzoxazin-3-one]
4 | 0.1 to 100 | Cc1cc(NC(C)(C)C)ccc1Nc1ccc2c(c1)OCC(=O)N2 [Compound 634, 7-((4-(tert-butylamino)-2-methylphenyl)amino)-2H-benzo[b][1,4]oxazin-3(4H)-one]
5 | 0.1 to 100 | Cc1cc(N2C[C@@H](C)O[C@@H](C)C2)ccc1Nc1ccc2cnn(C)c2c1 [Compound 638, N-(4-((2S,6R)-2,6-dimethylmorpholino)-2-methylphenyl)-1-methyl-1H-indazol-6-amine]
6 | 0.1 to 100 | Cc1cc(N2CC(OC(C)C)C2)ccc1Nc1ccc2c(c1)OCC(=O)N2 [Compound 640, 7-((4-(3-isopropoxyazetidin-1-yl)-2-methylphenyl)amino)-2H-benzo[b][1,4]oxazin-3(4H)-one]
7 | 0.1 to 100 | CC1CC(C(F)(F)F)CCN1c1ccc(Nc2ccc3c(c2)OCC(=O)N3)cc1 (stereo not drawn) [Compound 642, 7-((4-(2-methyl-4-(trifluoromethyl)piperidin-1-yl)phenyl)amino)-2H-benzo[b][1,4]oxazin-3(4H)-one]

More lines, now with the values behind:

Row | SMILES | EC50 [nM]
8 | Cc1cc(N2CCC(F)(F)CC2)ccc1Nc1ccc2c(c1)OCCC(=O)N2 [Compound 629, 8-((4-(4,4-difluoropiperidin-1-yl)-2-methylphenyl)amino)-2,3-dihydrobenzo[b][1,4]oxazepin-4(5H)-one] | 0.1 to 100
9 | Cc1cc(N2CCC(C(F)(F)F)CC2)ccc1Nc1ccc2ncc(C(N)=O)n2c1 [Compound 630, 6-((2-methyl-4-(4-(trifluoromethyl)piperidin-1-yl)phenyl)amino) imidazo[1,2-a]pyridine-3-carboxamide] | 0.1 to 100
10 | COC1(C(F)(F)F)CN(c2ccc(Nc3ccc4c(c3)OCC(=O)N4)c(C)c2)C1 [Compound 633, 7-({4-[3-methoxy-3-(trifluoromethyl)azetidin-1-yl]-2-methylphenyl}amino)-2,4-dihydro-1,4-benzoxazin-3-one] | 0.1 to 100
11 | CCNc1ccc(Nc2ccc3c(c2)OCC(=O)N3)c(C)c1 [Compound 635, 7-((4-(ethylamino)-2-methylphenyl)amino)-2H-benzo[b][1,4]oxazin-3(4H)-one] | 0.1 to 100
12 | Cc1cc(N2CC(F)(F)C(F)(F)C2)ccc1Nc1ccc2c(c1)OCC(=O)N2 [Compound 636, 7-((2-methyl-4-(3,3,4,4-tetrafluoropyrrolidin-1-yl)phenyl)amino)-2H-benzo[b][1,4]oxazin-3(4H)-on] | 0.1 to 100
13 | Cc1cc(N2C[C@@H](C)O[C@@H](C)C2)ccc1Nc1ccc2cn(C)nc2c1 [Compound 637, N-(4-((2S,6R)-2,6-dimethylmorpholino)-2-methylphenyl)-2-methyl-2H-indazol-6-amine] | 0.1 to 100
14 | COC1(C)CN(c2ccc(Nc3ccc4c(c3)OCC(=O)N4)c(C)c2)C1 [Compound 639, 7-((4-(3-methoxy-3-methylazetidin-1-yl)-2-methylphenyl)amino)-2H-benzo[b][1,4] oxazin-3(4H)-one] | 0.1 to 100
15 | Cc1cc(N2CC3CC3C2)ccc1Nc1ccc2c(c1)OCC(=O)N2 (stereo not drawn) [Compound 641, 7-((4-(3-azabicyclo[3.1.0]hexan-3-yl)-2-methylphenyl)amino)-2H-benzo[b][1,4]oxazin-3(4H)-one] | 0.1 to 100
